# In patent US8686044B2, “Amide derivative, pest control agent containing the amide derivative, and use of the amide derivative” (Mitsui Chemicals Agro, Inc., priority 2008, dated 2014):
# How the values were obtained:
# Format in all cases: in vivo
# [1] = system: Plutella xylostella; assay: Pesticidal test against Plutella xylostella (cabbage leaf dip); conditions: foliar, 144 h, 2-stage larvae, examined after 6 days, 25° C., read-out: pesticidal rate; for pest or weed control at 1 ppm: concentration 1 ppm; for pest or weed control at 10 ppm: concentration 10 ppm
# Method: (§1) Pesticidal Test against Plutella xylostella A piece of a cabbage leaf was immersed for 30 seconds in a chemical solution in which a test compound had been prepared at a predetermined concentration, and air-dried, and then put into a 7 cm polyethylene cup having a filter paper laid on the bottom thereof, and 2-stage larvae of Plutella xylostella were released. They were left to stand in a thermostatic chamber at 25° C., and the numbers of the living pests and the dead pests were examined after 6 days. The test was carried out with five larvae per group in two replicates. Further, the above compound (A) was used as a comparative compound.
# [2] = system: Laodelphax striatellus; assay: Pesticidal test against Laodelphax striatellus (rice seedling spray); conditions: 144 h, concentration 100 ppm, 3-stage larvae, examined after 6 days, 25° C., read-out: pesticidal rate
# Method: Pesticidal Test against Laodelphax striatellus
# 2.5 ml of an acetone solution in which a test compound had been prepared at a predetermined concentration was sprayed on rice seedlings, air-dried, and then put into a glass tube having a diameter of 3 cm and a height of 13 cm, having water therein, and 3-stage larvae of Laodelphax striatellus were released and the tube was capped. They were left to stand in a thermostatic chamber at 25° C., and the numbers of the living pests and the dead pests were examined after 6 days. The test was carried out with ten larvae per group in two replicates.
# [3] = system: Spodoptera litura; assay: Pesticidal test against Spodoptera litura (cabbage leaf dip); conditions: foliar, 144 h, 2-stage larvae, examined after 6 days, 25° C., read-out: pesticidal rate; for pest or weed control at 1 ppm: concentration 1 ppm; for pest or weed control at 10 ppm: concentration 10 ppm
# Method: as §1, with “Spodoptera litura” for “Plutella xylostella”, “following” for “above”, “(A) disclosed in the pamphlet of International Publication WO 2005/073165” for “(A)”
SMILES,pest or weed control at 1 ppm [1] [%],pest or weed control at 100 ppm [2] [%],pest or weed control at 1 ppm [3] [%],pest or weed control at 10 ppm [1] [%],pest or weed control at 10 ppm [3] [%]
CN(C(=O)c1ccncc1)c1cccc(C(=O)Nc2c(Br)cc(C(F)(C(F)(F)F)C(F)(F)F)cc2C(F)(F)F)c1F [7-1639],≥ 70,≥ 70,≥ 70,,
CN(C(=O)c1ccc(C#N)cc1)c1cccc(C(=O)Nc2c(Br)cc(C(F)(C(F)(F)F)C(F)(F)C(F)(F)F)cc2Br)c1F (centres unmarked) [7-1203],≥ 70,≥ 70,≥ 70,,
O=C(Nc1cccc(C(=O)Nc2c(Br)cc(C(F)(C(F)(F)F)C(F)(F)F)cc2C(F)(F)F)c1)c1ccc(Cl)nc1 [6-311],,≥ 70,≥ 70,≥ 70,
O=C(Nc1c(I)cc(C(F)(C(F)(F)F)C(F)(F)F)cc1C(F)(F)F)c1cccc(NC(=O)c2cccnc2Br)c1 [6-461],≥ 70,≥ 70,≥ 70,,
CN(C(=O)c1ccc(Cl)nc1)c1cccc(C(=O)Nc2c(Br)cc(C(F)(C(F)(F)F)C(F)(F)C(F)(F)F)cc2Br)c1F (centres unmarked) [7-1225],≥ 70,≥ 70,≥ 70,,
O=C(Nc1cccc(C(=O)Nc2c(I)cc(C(F)(C(F)(F)F)C(F)(F)C(F)(F)F)cc2I)c1F)c1cccc(F)c1 (centres unmarked) [6-1340],≥ 70,≥ 70,≥ 70,,
N#Cc1ccc(C(=O)Nc2cc(C(=O)Nc3c(Cl)cc(C(F)(C(F)(F)F)C(F)(F)F)cc3C(F)(F)F)ccc2C#N)cc1 [1-491],≥ 70,≥ 70,≥ 70,,
CN(C(=O)c1ccc(C#N)cc1)c1cccc(C(=O)Nc2c(C(F)(F)F)cc(C(F)(C(F)(F)F)C(F)(F)F)cc2C(F)(F)F)c1 [7-825],,≥ 70,≥ 70,≥ 70,
CN(C(=O)c1ccc(Cl)nc1)c1cccc(C(=O)Nc2c(I)cc(C(F)(C(F)(F)F)C(F)(F)F)cc2C(F)(F)F)c1 [7-467],≥ 70,≥ 70,≥ 70,,
CN(C(=O)c1ccc(C#N)cc1)c1cccc(C(=O)N(C)c2c(Br)cc(C(F)(C(F)(F)F)C(F)(F)F)cc2C(F)(F)F)c1 [9-291],≥ 70,≥ 70,≥ 70,,
"O=C(Nc1cc(C(=O)Nc2c(Br)cc(C(F)(C(F)(F)F)C(F)(F)F)cc2C(F)(F)F)ccc1F)c1ccccc1 [6-3348, 3-benzamide-N-(2-bromo-4-(perfluoropropan-2-yl)-6-(trifluoromethyl)phenyl)-4-fluorobenzamide]",≥ 70,≥ 70,≥ 70,,
CN(C(=O)c1ccc(F)cc1)c1cccc(C(=O)Nc2c(I)cc(C(F)(C(F)(F)F)C(F)(F)F)cc2C(F)(F)F)c1 [7-427],≥ 70,≥ 70,≥ 70,,
CN(C(=O)c1cccnc1Cl)c1cccc(C(=O)Nc2c(Br)cc(C(F)(C(F)(F)F)C(F)(F)F)cc2C(F)(F)F)c1 [7-304],≥ 70,≥ 70,≥ 70,,
CN(C(=O)c1ccccc1)c1cccc(C(=O)Nc2c(Br)cc(C(F)(C(F)(F)F)C(F)(F)F)cc2I)c1F [7-5902],≥ 70,≥ 70,≥ 70,,
CN(C(=O)c1ccc(C#N)cc1)c1cccc(C(=O)Nc2c(Cl)cc(C(F)(C(F)(F)F)C(F)(F)F)cc2Cl)c1F [7-969],≥ 70,,≥ 70,,
CN(C(=O)c1cc(C#N)cc(C#N)c1)c1cccc(C(=O)Nc2c(Br)cc(C(F)(C(F)(F)F)C(F)(F)F)cc2C(F)(F)F)c1 [7-299],≥ 70,,≥ 70,,
N#Cc1ccc(C(=O)Nc2cccc(C(=O)Nc3c(C(F)(F)F)cc(C(F)(C(F)(F)F)C(F)(F)F)cc3C(F)(F)F)c2)cc1 [6-825],≥ 70,,≥ 70,,
CN(C(=O)c1cccc(NC(=O)c2ccccc2)c1)c1c(Br)cc(C(F)(C(F)(F)F)C(F)(F)F)cc1C(F)(F)F [8-268],≥ 70,,≥ 70,,
CN(C(=O)c1cccc(C#N)c1)c1cccc(C(=O)Nc2c(Br)cc(C(F)(C(F)(F)F)C(F)(F)C(F)(F)F)cc2Br)c1 (centres unmarked) [7-45],≥ 70,,≥ 70,,
N#Cc1ccc(C(=O)Nc2cccc(C(=O)Nc3c(Br)cc(C(F)(C(F)(F)F)C(F)(F)F)cc3C(F)(F)F)c2)cc1 [6-289],≥ 70,,≥ 70,,

SMILES,pest or weed control at 1 ppm [1] [%],pest or weed control at 100 ppm [2] [%],pest or weed control at 1 ppm [3] [%],pest or weed control at 10 ppm [1] [%],pest or weed control at 10 ppm [3] [%]
O=C(Nc1c(C(F)(F)F)cc(C(F)(C(F)(F)F)C(F)(F)F)cc1C(F)(F)F)c1cccc(NC(=O)c2cccnc2Cl)c1 [6-840],≥ 70,,≥ 70,,
"CN(C(=O)c1ccccc1F)c1nc(C(=O)Nc2c(Br)cc(C(F)(C(F)(F)F)C(F)(F)F)cc2C(F)(F)F)cs1 [27-628, N-(2-bromo-4-(perfluoropropan-2-yl)-6-(trifluoromethyl)phenyl)-2-(2-fluoro-N-methylbenzamide)thiazole-4-carboxamide]",,,,≥ 70,≥ 70
O=C(Nc1cccc(C(=O)Nc2c(C(F)(F)F)cc(C(F)(C(F)(F)F)C(F)(F)F)cc2C(F)(F)F)c1)c1ccccc1 [6-804],≥ 70,,≥ 70,,
O=C(Nc1cccc(C(=O)Nc2c(Br)cc(C(F)(C(F)(F)F)C(F)(F)C(F)(F)F)cc2Br)c1)c1ccc(Cl)nc1 (centres unmarked) [6-60],,,≥ 70,≥ 70,
CN(C(=O)c1cccc(NC(=O)c2ccccc2)c1)c1c(C(F)(F)F)cc(C(F)(C(F)(F)F)C(F)(F)F)cc1C(F)(F)F [8-804],,,≥ 70,≥ 70,
CN(C(=O)c1ccc(F)cc1)c1cccc(C(=O)Nc2c(I)cc(C(F)(C(F)(F)F)C(F)(F)C(F)(F)F)cc2I)c1 (centres unmarked) [7-5905],≥ 70,,≥ 70,,
CN(C(=O)c1cccnc1Cl)c1cccc(C(=O)Nc2c(Cl)cc(C(F)(C(F)(F)F)C(F)(F)F)cc2C(F)(F)F)c1 [7-147],≥ 70,,≥ 70,,
O=C(Nc1cccc(C(=O)Nc2c(I)cc(C(F)(C(F)(F)F)C(F)(F)F)cc2C(F)(F)F)c1)c1ccccc1 [6-424],≥ 70,,≥ 70,,
CN(C(=O)c1cccc(C#N)c1)c1cccc(C(=O)Nc2c(C(F)(F)F)cc(C(F)(C(F)(F)F)C(F)(F)F)cc2C(F)(F)F)c1 [7-824],≥ 70,,≥ 70,,
O=C(Nc1c(I)cc(C(F)(C(F)(F)F)C(F)(F)F)cc1C(F)(F)F)c1cccc(NC(=O)c2ccc(Cl)cc2Cl)c1 [6-448],,,≥ 70,≥ 70,
CN(C(=O)c1cccnc1Cl)c1cc(C(=O)Nc2c(Br)cc(C(F)(C(F)(F)F)C(F)(F)F)cc2C(F)(F)F)ccc1F [7-3384],≥ 70,,≥ 70,,
N#Cc1ccc(C(=O)Nc2c(Cl)cc(C(F)(C(F)(F)F)C(F)(F)F)cc2C(F)(F)F)cc1NC(=O)c1cccnc1Cl [1-506],,,,≥ 70,≥ 70
CN(C(=O)c1ccccc1F)c1cccc(C(=O)Nc2c(Br)cc(C(F)(C(F)(F)F)C(F)(F)F)cc2C(F)(F)F)c1 [7-269],,,≥ 70,≥ 70,
CN(C(=O)c1c(F)cccc1F)c1cccc(C(=O)Nc2c(Br)cc(C(F)(C(F)(F)F)C(F)(F)F)cc2C(F)(F)F)c1 [7-290],≥ 70,,≥ 70,,
CN(C(=O)c1ccc(Cl)nc1)c1cccc(C(=O)Nc2c(Br)cc(C(F)(C(F)(F)F)C(F)(F)C(F)(F)F)cc2Br)c1 (centres unmarked) [7-60],≥ 70,,≥ 70,,
CS(=O)(=O)c1ccc(C(=O)Nc2cccc(C(=O)Nc3c(I)cc(C(F)(C(F)(F)F)C(F)(F)F)cc3C(F)(F)F)c2)c(Cl)c1 [6-5912],≥ 70,,≥ 70,,
CN(C(=O)c1cccc(NC(=O)c2cccc(C#N)c2)c1)c1c(C(F)(F)F)cc(C(F)(C(F)(F)F)C(F)(F)F)cc1C(F)(F)F [8-824],≥ 70,,≥ 70,,
O=C(Nc1cccc(C(=O)Nc2c(I)cc(C(F)(C(F)(F)F)C(F)(F)F)cc2C(F)(F)F)c1)c1ccc(Cl)nc1 [6-467],≥ 70,,≥ 70,,
CN(C(=O)c1ccccc1)c1cccc(C(=O)Nc2c(C(F)(F)F)cc(C(F)(C(F)(F)F)C(F)(F)F)cc2C(F)(F)F)c1 [7-804],,,≥ 70,≥ 70,
